The values that follow come from ChEMBL document CHEMBL3507680, “University of Dundee, Gates Library screen for HepG2 cell viability”.

This data set is described as follows: Human HepG2 cell viability assay in 384 well format. Details: dose 125 nL, time 70.5 hour; concentration not given beside the values. Particulars: HepG2 cells, read-out: Inhibition. The data set is classed as toxicity, cell-based.
Turning to `CCOCC1CN(CC2CCC2)Cc2nnn(CC3CC3)c21` (stereo unspecified), the cytotoxicity at 70.5 h is -0.482%.

On to `O=C(NC1CC1)c1cc2c(s1)CCN2C(=O)C1CC1`, for which the cytotoxicity at 70.5 h is -7.29%.

As to `Cn1cc(-c2ncnc3c2CCN(C(=O)c2cscn2)CC3)cn1`, the cytotoxicity at 70.5 h came out at 22.4%.

As for `CCS(=O)(=O)N1Cc2nccn2CC(Cn2cccn2)C1` (stereo unspecified), the cytotoxicity at 70.5 h was determined as 1.18%.

On to `O=C(Nc1ccccc1)N1CCc2nc(C(=O)N3CCCC3)sc2CC1`, for which the cytotoxicity at 70.5 h is -2.49%.

For `NC(=O)c1nc2c(s1)CCN(C(=O)Nc1cccc(Cl)c1)CC2`, the cytotoxicity at 70.5 h was found to be 7.06%.

Take `OCc1nnc2n1CCN(c1cnccn1)C2`: the cytotoxicity at 70.5 h was -1.17%.

On to `CN1Cc2ccccc2CC2(CCN(Cc3nccn3C)CC2)C1=O`, for which the cytotoxicity at 70.5 h was -3.31%.

Regarding `CCC1=NC2(CCC(C(=O)Nc3ccc(C)nc3)CC2)C(=O)N1C` (stereo unspecified), the cytotoxicity at 70.5 h is -2.35%.

With `CCC1=NC2(CCC(C(=O)Nc3ccc(F)cc3)CC2)C(=O)N1C` (stereo unspecified), the cytotoxicity at 70.5 h was -5.04%.

Turning to `CC(C)n1nc(CN2CCCC2=O)c2c1CN(C(=O)c1ccno1)C2`, the cytotoxicity at 70.5 h was -1.71%.

For the molecule `Cc1ccc(CN2CCO[C@@H]3[C@@H](OCc4cccnc4)CC[C@@H]32)o1`, the cytotoxicity at 70.5 h is -4.63%.

As for `CC(C)O[C@@H]1CC[C@H]2[C@H]1OCCN2C(=O)c1nn(C)c2ccccc12`, the cytotoxicity at 70.5 h was determined as 1.07%.

For `CCS(=O)(=O)N1C[C@H]2CN(CC3CC3)C(=O)[C@H]2C1`, the cytotoxicity at 70.5 h was -0.251%.

Turning to `O=C1[C@H]2CN(S(=O)(=O)C3CC3)C[C@H]2CN1CC1CC1`, the cytotoxicity at 70.5 h is 0.281%.

On to `CC(C)NC(=O)C1CN(C(=O)c2ccco2)CC12CCOCC2` (stereo unspecified), for which the cytotoxicity at 70.5 h was -6.64%.

Turning to `Cc1occc1C(=O)N1CC[C@@H](N2CCOCC2)[C@@H]1Cc1ccccc1`, the cytotoxicity at 70.5 h was -7.85%.

On to `O=C1NC2(CCN(Cc3cccnc3)CC2)CC1c1ccncc1` (stereo unspecified), for which the cytotoxicity at 70.5 h was -10.6%.

As to `CCOCC1CC2(CCN(C(=O)c3ccccc3F)CC2)CO1` (stereo unspecified), the cytotoxicity at 70.5 h was found to be 0.964%.

Turning to `O=C(NCC1CC1)C1=NOC2(CCN(S(=O)(=O)c3cccs3)C2)C1` (stereo unspecified), the cytotoxicity at 70.5 h is -10%.

`CCOCC1CC2(CCN(Cc3ccccn3)CC2)CO1` (stereo unspecified): the cytotoxicity at 70.5 h is -3.81%.

Consider `Cc1noc(C)c1C(=O)N1CC[C@H]2C[C@@H](c3nccs3)O[C@@H]2C1`, for which the cytotoxicity at 70.5 h was -13.5%.

As to `CC(C)c1nccc([C@H]2C[C@@H]3CCN(Cc4ccoc4)C[C@H]3O2)n1`, the cytotoxicity at 70.5 h was -4.74%.

`COC[C@@H]1CC[C@H]2[C@H](CCN2S(=O)(=O)c2ccc(F)cc2)O1`: the cytotoxicity at 70.5 h is -28.6%.

On to `CS(=O)(=O)N1CCC(c2nnc3ccc(C(=O)N4CCCC4)cn23)C1` (stereo unspecified), for which the cytotoxicity at 70.5 h is -5.09%.

`CS(=O)(=O)N1CCC2(CC1)CC(CC(=O)N1CCCC1)c1ccccc12` (stereo unspecified): the cytotoxicity at 70.5 h was -10.4%.

As for `Fc1cnc(N2CCOCC3(CCCN(c4nncs4)C3)C2)nc1` (stereo unspecified), the cytotoxicity at 70.5 h is -19.9%.

In the case of `COCC(=O)N1CCC2(CC1)CC(CC(=O)NC1CC1)c1ccccc12` (stereo unspecified), the cytotoxicity at 70.5 h is -18.5%.

As for `COC[C@@H]1CC[C@H]2[C@H](CCN2S(=O)(=O)c2ccc(OC)cc2)O1`, the cytotoxicity at 70.5 h is -6.4%.

As to `CCN(C)c1ncnc2c1CCN(Cc1ccoc1)CC2`, the cytotoxicity at 70.5 h is -20.5%.

Take `Cc1ccc(C(=O)N2C[C@@H](OCC3CCOCC3)[C@H]3OCCC[C@H]32)o1`: the cytotoxicity at 70.5 h is -27.2%.

For `Cn1cc(-c2nnn3c2COC(CNCc2nccs2)C3)cn1` (stereo unspecified), the cytotoxicity at 70.5 h was -25.2%.

Turning to `CN(C)c1nccc(-c2c[nH][nH]c2=O)n1`, the cytotoxicity at 70.5 h was -1.59%.

For `O=C(NCC(F)(F)F)C1=NOC2(CCCNC2)C1` (stereo unspecified), the cytotoxicity at 70.5 h stood at 0.364%.

Turning to `Fc1cnc(N2C[C@@H]3C[C@@H](c4nc(C5CC5)cs4)O[C@@H]3C2)nc1`, the cytotoxicity at 70.5 h was -1.67%.

For the molecule `O=S(=O)(C1CC1)N1CCCn2cnc(COc3cccnc3)c2C1`, the cytotoxicity at 70.5 h is -2.62%.

In the case of `Cn1ccnc1CN1CCC2(CC1)Cc1ccccc1CNC2=O`, the cytotoxicity at 70.5 h was -3.2%.

For the molecule `CC(C)NC(=O)N1CCc2ncnc(-c3ccncc3)c2CC1`, the cytotoxicity at 70.5 h is -3.38%.

Turning to `Cc1oncc1C(=O)N1CC[C@@H]2[C@@H]1CC(=O)N2Cc1cccnc1`, the cytotoxicity at 70.5 h is -5.14%.

With `CC(C)N(C)Cc1nnc2n1CCCN(c1ncccn1)C2`, the cytotoxicity at 70.5 h was -2.54%.

In the case of `Cc1ccc(N2CC[C@H]3O[C@@H](C(=O)N4CCCCO4)CC[C@H]32)nn1`, the cytotoxicity at 70.5 h is -4.7%.

As to `Cc1ccc(N2CC[C@H]3O[C@@H](C(=O)N4CCCO4)CC[C@H]32)nn1`, the cytotoxicity at 70.5 h amounted to 0.0406%.

Turning to `CN(C)C(=O)N1CCO[C@@H]2CC(COCc3cccnc3)C[C@H]21` (stereo partly specified), the cytotoxicity at 70.5 h was -1.44%.

`Cn1cccc1C(=O)N1CCC2(CCN2c2ncccn2)C1` (stereo unspecified): the cytotoxicity at 70.5 h was -3.82%.

For `O=S(=O)(C1CC1)N1CCC2(CCCN(c3ncccn3)C2)C1` (stereo unspecified), the cytotoxicity at 70.5 h is 18%.

For the molecule `CN(C)[C@@H]1CN(C(=O)Cc2ccsc2)[C@@H]2CCCO[C@H]12`, the cytotoxicity at 70.5 h was 16.1%.

In the case of `CN(C)C(=O)CN1CCOCC2(C1)CN(c1ncccn1)CCO2` (stereo unspecified), the cytotoxicity at 70.5 h came to 16.4%.

Turning to `CN(C)[C@@H]1CN(C(=O)Cc2ccc(F)cc2)[C@@H]2CCCO[C@H]12`, the cytotoxicity at 70.5 h came out at 18.3%.

Take `Cc1noc(C)c1C(=O)N1CCOC2(COCCN(C(C)C)C2)C1` (stereo unspecified): the cytotoxicity at 70.5 h was -1.02%.

In the case of `COCCN1CCc2ncnc(OC(C)C)c2CC1`, the cytotoxicity at 70.5 h was -9.41%.

Consider `O=C(Cc1ccsc1)N1Cc2nc(CN3CCCCC3)oc2C1`, for which the cytotoxicity at 70.5 h was -4.42%.

As for `c1cnc(N2CCO[C@H]3[C@H](OCC4CCOCC4)CC[C@@H]32)nc1`, the cytotoxicity at 70.5 h is -10.9%.

Turning to `Cc1nocc1C(=O)N1CCOC2(COCCN(C(C)C)C2)C1` (stereo unspecified), the cytotoxicity at 70.5 h was -5.11%.

`CC(C)NC(=O)[C@@]12CCO[C@@H]1CCN(Cc1ccc3c(c1)OCO3)C2`: the cytotoxicity at 70.5 h was found to be 1.85%.

As for `O=C(NC1CC1)[C@@]12CCO[C@@H]1CCN(Cc1ccc3c(c1)OCO3)C2`, the cytotoxicity at 70.5 h worked out at 2.54%.

As to `O=C1CCCN1Cc1nnc2n1CCN(Cc1ccco1)CC2`, the cytotoxicity at 70.5 h is -1.59%.

Turning to `O=C(c1cscn1)N1CC[C@@H]2[C@@H]1CCN2CC1CCOCC1`, the cytotoxicity at 70.5 h was -1.87%.

For the molecule `CC(C)CCN1C[C@H]2C[C@H](C(=O)N3CCCC3)[C@@H](C1)O2`, the cytotoxicity at 70.5 h is -5.2%.

For the molecule `c1cnc(NCc2nnn3c2CN(CC2CC2)CCC3)nc1`, the cytotoxicity at 70.5 h is -4.25%.

Regarding `CCOC1COC2(CCN(c3ccccn3)CC2)C1` (stereo unspecified), the cytotoxicity at 70.5 h is -0.266%.

With `CN(C)S(=O)(=O)N1CC[C@]2(C[C@H](Oc3ncccc3F)CO2)C1`, the cytotoxicity at 70.5 h worked out at 2.84%.

For the molecule `CN(C)S(=O)(=O)N1CC[C@]2(C[C@H](Oc3cccnc3)CO2)C1`, the cytotoxicity at 70.5 h is -5.74%.

With `O=C1CO[C@@H]2CN(Cc3cccs3)C[C@H]2N1CC1CC1`, the cytotoxicity at 70.5 h is -9.66%.

As to `O=C(c1ccco1)N1C[C@H]2CCCN(CC3CCOCC3)[C@H]2C1`, the cytotoxicity at 70.5 h is -7.8%.

As to `Cc1nc(CN2CCO[C@@H]3CN(C(=O)NC(C)C)CC[C@@H]3C2)cs1`, the cytotoxicity at 70.5 h was -6.02%.

For `COc1ccc(CN2CCC[C@@H]3CN(C(=O)c4ccco4)C[C@@H]32)cc1`, the cytotoxicity at 70.5 h is -10.9%.

With `Cc1ccc(C(=O)N2CCC3(CC2)COC(COc2ccccn2)C3)o1` (stereo unspecified), the cytotoxicity at 70.5 h is -4.24%.

With `COCC(=O)N1CCC2(CC1)CCN(Cc1ccccn1)C2=O`, the cytotoxicity at 70.5 h is -0.554%.

For `c1cncc(N2CCOCC3(CCCN(c4nncs4)C3)C2)c1` (stereo unspecified), the cytotoxicity at 70.5 h was -21.7%.

Turning to `CN(C)C(=O)[C@@H]1CCO[C@@H]2CCN(Cc3ccc4c(c3)OCO4)C[C@@H]21`, the cytotoxicity at 70.5 h is -21.3%.

For `COCC1CN(Cc2ccsc2)Cc2nn(C)cc21` (stereo unspecified), the cytotoxicity at 70.5 h was determined as 16.3%.

Take `CN(C)C[C@H]1OC[C@@H]2CCN(S(=O)(=O)c3ccccc3)C[C@@H]21`: the cytotoxicity at 70.5 h came out at 22.9%.

For `O=C(c1ncccn1)N1C[C@H]2CCC[C@@]2(COCc2cccnc2)C1`, the cytotoxicity at 70.5 h was found to be 15.8%.

With `CCO[C@@H]1CO[C@@]2(CCCN(S(=O)(=O)c3cccnc3)C2)C1`, the cytotoxicity at 70.5 h was -17.7%.

For the molecule `CC(C)NC(=O)N1CCC2(C1)CN(c1ccsc1)C(=O)CN2C` (stereo unspecified), the cytotoxicity at 70.5 h is -9.03%.

As to `CO[C@@H]1CCN(Cc2c(C)noc2C)[C@@H]2CN(Cc3ccco3)C[C@@H]21`, the cytotoxicity at 70.5 h was -2.94%.

In the case of `COCC1CN(c2ccc(C)nn2)Cc2cnn(CC3CCOCC3)c21` (stereo unspecified), the cytotoxicity at 70.5 h was -6.71%.

With `COCC1CN(c2ncc(F)cn2)Cc2cnn(C)c21` (stereo unspecified), the cytotoxicity at 70.5 h is -4.56%.

Take `Cc1cccc(CN2CCO[C@@H]3CC(COc4ccccn4)C[C@H]32)n1` (stereo partly specified): the cytotoxicity at 70.5 h was 5.17%.

Consider `Cc1nc(CN2CCC3(CC2)CC(c2cccnc2)C(=O)N3C)cs1` (stereo unspecified), for which the cytotoxicity at 70.5 h is -3.5%.

For the molecule `c1ccc(CN2CCc3nnc(CN4CCCCC4)n3CC2)nc1`, the cytotoxicity at 70.5 h was 3.32%.

For `CN(C)[C@@H]1CN(Cc2ccoc2)C[C@@H]2CCCO[C@@H]21`, the cytotoxicity at 70.5 h was -8.48%.

In the case of `c1csc(CN2CCOCC3(CCN(C4CCOCC4)C3)C2)n1` (stereo unspecified), the cytotoxicity at 70.5 h was 0.591%.

On to `Cc1cccc(CN2C[C@@H]3COC[C@]3(CNC(=O)N3CCCC3)C2)n1`, for which the cytotoxicity at 70.5 h amounted to 0.0201%.

As for `CN(C)CC(=O)N1CCC2(CC1)COC(COc1ccccn1)C2` (stereo unspecified), the cytotoxicity at 70.5 h was -7.86%.

Turning to `Cc1cccc(C(=O)N2C[C@@H](OCc3cccnc3)[C@H]3OCCC[C@@H]32)n1`, the cytotoxicity at 70.5 h is -1.75%.

With `O=C1NC2(CCN(Cc3nccs3)CC2)CC1c1ccncc1` (stereo unspecified), the cytotoxicity at 70.5 h was -0.916%.

In the case of `Cc1cccc(N2CC[C@@H]3CN(Cc4csc(C)n4)CCO[C@@H]3C2)n1`, the cytotoxicity at 70.5 h was 2.82%.

As for `CCN(C)c1ncnc2c1CCN(Cc1ccc(OC)cc1)CC2`, the cytotoxicity at 70.5 h was -2.63%.

Regarding `COCC1CC2(CCN(Cc3ccc(OC)cc3)CC2)CN1C(C)C` (stereo unspecified), the cytotoxicity at 70.5 h is -13.7%.

For the molecule `CO[C@@H]1CCN(Cc2c(C)noc2C)[C@@H]2CN(Cc3cccnc3)C[C@@H]21`, the cytotoxicity at 70.5 h is -5.86%.
